Melting point data for 41 compounds are collected here from patent publication US20010003121A1, “Novel compounds” (AstraZeneca UK Limited, priority 1997, published 2001).

Counter-ions that a name gives are not always drawn.

The term melting point denotes the temperature of the solid-liquid transition. `O=C(NCC12CC3CC(CC(C3)C1)C2)c1ccc(Cl)cc1Cl` gave a melting point of 180 to 182 °C. As for `COc1cccc(OC)c1C(=O)NCC12CC3CC(CC(C3)C1)C2`, the figure is 185 to 186 °C; as for `CN(C)CCOc1ccccc1C(=O)NCC12CC3CC(CC(C3)C1)C2.Cl`, 181 to 183 °C; as for `O=C(NCC12CC3CC(CC(C3)C1)C2)c1cc(NCCCl)ccc1Cl`, 144 to 145 °C.

On to `O=C(NCC12CC3CC(CC(C3)C1)C2)c1cc(N2CC2)ccc1Cl`, for which the melting point was 154 to 155 °C. The value for `CN(C)CCNc1ncccc1C(=O)NCC12CC3CC(CC(C3)C1)C2` (as salt: hydrochloride) [Example 32, 2-(2-(N,N-Dimethylamino)ethylamino)-N-(tricyclo[3.3.1.1^3,7]dec-1-ylmethyl)-3-pyridine carboxamide, dihydrochloride] was 258 to 260 °C; that for `O=C(NCC12CC3CC(CC(C3)C1)C2)c1cccnc1NCCN1CCCC1` (as salt: hydrochloride) [Example 33, 2-(2-(Pyrrolidin-1-yl)ethylamino)-N-(tricyclo[3.3.1.1^3,7]dec-1-ylmethyl)-3-pyridine carboxamide, dihydrochloride] was 266 to 268 °C. As for `CNc1ncccc1C(=O)NCC12CC3CC(CC(C3)C1)C2` (as salt: hydrochloride) [Example 34, 2-(Methylamino)-N-(tricyclo[3.3.1.1^3,7]dec-1-ylmethyl)-3-pyridine carboxamide, dihydrochloride], the figure is 160 to 162 °C; as for `CN(C)c1ncccc1C(=O)NCC12CC3CC(CC(C3)C1)C2` (as salt: hydrochloride) [Example 35, 2-(Dimethylamino)-N-(tricyclo[3.3.1.1^3,7]dec-1-ylmethyl)-3-pyridine carboxamide, hydrochloride], 204 to 205 °C; as for `O=C(NCC12CC3CC(CC(C3)C1)C2)c1cccnc1N1CCCC1` (as salt: hydrochloride) [Example 36, 2-(Pyrrolidin-1-yl) N-(tricyclo[3.3.1.1^3,7]dec-1-ylmethyl)-3-pyridine carboxamide, dihydrochloride], 157 to 158 °C. As for `CN(C)CCCOc1ccc(Sc2ncccc2C(=O)NCC23CC4CC(CC(C4)C2)C3)cc1` (as salt: hydrochloride) [Example 48, 2-(4-(3-N,N-dimethylamino)propyloxyphenylthio)-N-(tricyclo[3.3.1.1^3,7]dec-1-ylmethyl)-3-pyridine carboxamide, dihydrochloride], the figure is 177 to 178 °C.

In the case of `O=C(NCC12CC3CC(CC(C3)C1)C2)c1cc(NCCN2CCCCC2)ccc1Cl` (as salt: hydrochloride) [Example 70, 2-Chloro-5-(2-(piperidin-1-yl)ethylamino)-N-(tricvclo(3.3.1.1^3,7]dec-1-ylmethyl)-benzamide, hydrochloride], the melting point was 142 to 143 °C (dec.). The value for `O=C(NCC12CC3CC(CC(C3)C1)C2)c1cc(NCCNCCO)ccc1Cl` (as salt: hydrochloride) [Example 71, 5-(N-(2-Hydroxyethyl)-2-aminoethyl)amino-2-chloro-N-(tricyclo[3.3.1.1^3,7]dec-1-ylmethyl)-benzamide, dihydrochloride] was 143 °C (dec.); that for `NCCSc1ncccc1C(=O)NCC12CC3CC(CC(C3)C1)C2` (as salt: trifluoroacetate) [Example 31, 2-(2-Aminoethylthio)-N-(tricyclo[3.3.1.1^3,7]dec-1-ylmethyl)-3-pyridine carboxamide, trifluoroacetate] was 184 °C. As for `O=C(NCC12CC3CC(CC(C3)C1)C2)c1cc(Cl)cc(Cl)c1` [Example 2, 3,5-Dichloro-N-(tricyclo[3.3.1.1^3,7]dec-1-methyl)-benzamide], the figure is 197 to 198 °C.

`O=C(NCC12CC3CC(CC(C3)C1)C2)c1c(Cl)cccc1Cl` [Example 4, 2,6-Dichloro-N-(tricyclo[3.3.1.1^3,7]dec-1-methyl)-benzamide]: the melting point lay within 246 to 247 °C. As for `O=C(NCC12CC3CC(CC(C3)C1)C2)c1ccccc1I` [Example 8, 2-Iodo-N-(tricyclo[3.3.1.1^3,7]dec-1-methyl)-benzamide], the figure is 194 to 195 °C; as for `O=C(NCC12CC3CC(CC(C3)C1)C2)c1ccccc1[N+](=O)[O-]` [Example 9, 2-Nitro-N-(tricyclo[3.3.1.1^3,7]dec-1-methyl)-benzamide], over 250 °C; as for `O=C(NCC12CC3CC(CC(C3)C1)C2)c1ccccc1C(F)(F)F` [Example 11, 2-(Trifluoromethyl)-N-(tricyclo[3.3.1.1^3,7]dec-1-methyl)-benzamide], 165 to 167 °C. As for `O=C(NCC12CC3CC(CC(C3)C1)C2)c1c(F)cccc1F` [Example 12, 2,6-Difluoro-N-(tricyclo[3.3.1.1^3,7]dec-1-methyl)-benzamide], the figure is 162 to 163 °C; as for `O=C(NCC12CC3CC(CC(C3)C1)C2)c1c(F)cccc1C(F)(F)F` [Example 13, 2-(Trifluoromethyl)-6-flouro-N-(tricyclo(3.3.1.1^3,7]dec-1-methyl)-benzamide], 151 to 153 °C. Turning to `Nc1cccc(Cl)c1C(=O)NCC12CC3CC(CC(C3)C1)C2` [Example 14, 2-Amino-6-chloro-N-(tricyclo[3.3.1.1^3,7]dec-1-methyl)-benzamide], the melting point was in the range of 182 to 183 °C. As to `N#Cc1ccccc1Sc1ccccc1C(=O)NCC12CC3CC(CC(C3)C1)C2` [Example 16, 2-(2-Cyanophenylthio)-N-(tricyclo[3.3.1.1^3,7]dec-1-methyl)-benzamide], the melting point fell in the range of 62 to 65 °C. `Cc1ccc(Sc2ncccc2C(=O)NCC23CC4CC(CC(C4)C2)C3)cc1` [Example 17, 2-(4-Methylphenylthio)-N-(tricyclo[3.3.1.1^3,7]dec-1-methyl)-3-pyridine carboxamide] gave a melting point of 166 to 169 °C. Consider `CSc1ccccc1C(=O)NCC12CC3CC(CC(C3)C1)C2` [Example 18, 2-(Methylthio)-N-(tricyclo[3.3.1.1^3,7]dec-1-methyl)-benzamide], for which the melting point lay within 171 to 172 °C. As for `O=C(NCC12CC3CC(CC(C3)C1)C2)c1cccc(Cl)c1` [Example 20, 3-Chloro-N-(tricyclo[3.3.1.1^3,7]dec-1-methyl)-benzamide], the figure is 125 to 126 °C; as for `Cc1ccc(C)c(C(=O)NCC23CC4CC(CC(C4)C2)C3)c1` [Example 22, 2,5-Dimethyl-N-(tricyclo[3.3.1.1^3,7]dec-1-methyl)-benzamide], 153 to 154 °C; as for `O=C(NCC12CC3CC(CC(C3)C1)C2)c1ccccc1Cc1ccccc1` [Example 23, 2-(Phenylmethyl) -N-(tricyclo[3.3.1.1^3,7]dec-1-methyl)-benzamide], 156 to 157 °C. As for `CC(C)(C)OC(=O)COc1ccccc1C(=O)NCC12CC3CC(CC(C3)C1)C2` [Example 25, 2-[[(Tricyclo[3.3.1.1^3,7]dec-1-ylmethyl)amino]carbony]phenyl-1-oxyacetic acid, 1,1-dimethylethyl ester], the figure is 101 to 103 °C; as for `C[S+]([O-])c1ncccc1C(=O)NCC12CC3CC(CC(C3)C1)C2` (centres unmarked) [Example 27, 2-(Methylsulphoxide)-N-(tricyclo[3.3.1.1^3,7]dec-1-methyl)-3-pyridine carboxamide], 214 °C; as for `O=C(NCC12CC3CC(CC(C3)C1)C2)c1ccc2[nH]ccc2c1` [Example 28, N-(tricyclo[3.3.1.1^3,7]dec-1-methyl)-5-indole carboxamide], 206 to 207 °C. Compound `Nc1cccc(Cl)c1C(=O)NCCC12CC3CC(CC(C3)C1)C2` [Example 29, 2-Amino-6-chloro-N-(2-[tricyclo[3.3.1.1^3,7]dec-1-yl]ethyl)-benzamide] gave a melting point of 132 to 134 °C.

`COc1ccc(OC)c(Sc2ncccc2C(=O)NCC23CC4CC(CC(C4)C2)C3)c1` [Example 37, 2-(2,5-Dimethoxyphenylthio)-N-(tricyclo[3.3.1.1^3,7]dec-1-ylmethyl)-3-pyridine carboxamide] had a melting point of 135 to 136 °C. The value for `CSc1ccc(Cl)c(C(=O)NCC23CC4CC(CC(C4)C2)C3)c1` [Example 38, 2-Chloro-5-methylthio-N-(tricyclo[3.3.1.1^3,7]dec-1-ylmethyl)-benzamide] was 126 to 127 °C; that for `CN(C)CCSc1ccccc1C(=O)NCC12CC3CC(CC(C3)C1)C2` [Example 39, 2-(2-(N,N-Dimethylamino)ethylthio)-N-(tricyclo[3.3.1.1^3,7]dec-1-ylmethyl)-benzamide] was 193 to 195 °C. The value for `COc1ccc(Sc2ncccc2C(=O)NCC23CC4CC(CC(C4)C2)C3)cc1` [Example 40, 2-(4-Methoxyphenylthio)-N-(tricyclo[3.3.1.1^3,7]dec-1-ylmethyl)-3-pyridine carboxamide] was 130 to 131 °C. As for `O=C(NCC12CC3CC(CC(C3)C1)C2)c1cccc(F)c1Cl` [Example 41, 2-Chloro-3-fluoro-N-(tricyclo[3.3.1.1^3,7]dec-1-ylmethyl)-benzamide], the melting point was 149 to 151 °C. As for `O=C(NCC12CC3CC(CC(C3)C1)C2)c1cc(F)ccc1Cl` [Example 43, 2-Chloro-5-fluoro-N-(tricyclo[3.3.1.1^3,7]dec-1-ylmethyl)-benzamide], the figure is 176 to 177 °C. As for `O=C(NCC12CC3CC(CC(C3)C1)C2)c1cccnc1Sc1cc(O)ccc1O` [Example 44, 2-(2,5-Dihydroxyphenylthio)-N-(tricyclo[3.3.1.1^3,7]dec-1-ylmethyl)-3-pyridine carboxamide], the figure is 108 to 110 °C. Regarding `O=C(O)CSc1ncccc1C(=O)NCC12CC3CC(CC(C3)C1)C2` [Example 45, 3-[[(Tricyclo[3.3.1.1^3,7]dec-1-ylmethyl)amino]carbonyl]pyridyl-2-thioacetic acid], the melting point lay within 147 to 150 °C. Consider `O=C(O)COc1ccc(Sc2ncccc2C(=O)NCC23CC4CC(CC(C4)C2)C3)cc1` [Example 47, 3-[[(Tricyclo[3.3.1.1^3,7]dec-1-ylmethyl)amino]carbonyl]pyridyl-2-(4-phenylthio) oxyacetic acid], for which the melting point lay within 185 to 186 °C.
